Measured values as given in the OligoGym collection.
Oligonucleotides are written 5' to 3', each unit as a sugar letter and its base; * is a phosphorothioate linkage, no mark a phosphodiester; rarer units and linkages stand in square brackets, end groups in braces. Plain capitals give the bases only. d = 2'-deoxy (DNA); r = 2'-OH (RNA)

target: UBE2C; experiment: reporter assay of Huesken 2005; conditions: siRNA
Also: test concentration or dose not given here.

Substance “sense rUrGrGrUrCrUrGrCrCrCrUrGrUrArUrGrArUrGdTdT / antisense rCrArUrCrArUrArCrArGrGrGrCrArGrArCrCrAdCdT” has a normalised inhibition (eCFP-eYFP dual reporter) of 28.6%.

target: UBE2M; experiment: reporter assay of Huesken 2005; conditions: siRNA

First: sense rArArCrGrUrGrCrArGrCrGrCrUrCrCrArUrGrCdTdT / antisense rGrCrArUrGrGrArGrCrGrCrUrGrCrArCrGrUrUdCdT
Second: sense rArArCrUrCrCrArUrArArUrUrUrArUrGrGrCrCdTdT / antisense rGrGrCrCrArUrArArArUrUrArUrGrGrArGrUrUdTdA
The normalised inhibition (eCFP-eYFP dual reporter) of the first is higher: 61.2% for the first, 49.7% for the second.

First: sense rArArGrArGrUrGrGrGrArArGrUrUrUrGrUrGrUdTdT / antisense rArCrArCrArArArCrUrUrCrCrCrArCrUrCrUrUdGdT
Second: sense rArCrGrArGrCrUrGrArArCrCrUrGrCrCrCrArAdTdT / antisense rUrUrGrGrGrCrArGrGrUrUrCrArGrCrUrCrGrUdTdT
The normalised inhibition (eCFP-eYFP dual reporter) of the first is higher: 85.1% for the first, 66% for the second.

Compared with “sense rArCrGrArUrArArArCrUrCrCrArUrArArUrUrUdTdT / antisense rArArArUrUrArUrGrGrArGrUrUrUrArUrCrGrUdAdA”, “sense rArCrGrUrCrUrGrCrCrUrCrArArCrArUrCrCrUdTdT / antisense rArGrGrArUrGrUrUrGrArGrGrCrArGrArCrGrUdTdG” is lower in normalised inhibition (eCFP-eYFP dual reporter): 82.2% for the first, 80.4% for the second.

Going from “sense rArGrArArCrArArCrCrGrGrCrGrGrCrUrGrUrUdTdT / antisense rArArCrArGrCrCrGrCrCrGrGrUrUrGrUrUrCrUdGdC” to “sense rArGrArArGrArArGrGrArGrGrArGrGrArGrUrCdTdT / antisense rGrArCrUrCrCrUrCrCrUrCrCrUrUrCrUrUrCrUdGdC”, the normalised inhibition (eCFP-eYFP dual reporter) falls from 61.2% to 59.4%.

First: sense rArGrCrArGrCrArArGrArArGrGrCrGrUrCrGrGdTdT / antisense rCrCrGrArCrGrCrCrUrUrCrUrUrGrCrUrGrCrUdGdC
Second: sense rArGrCrUrGrArArCrCrUrGrCrCrCrArArGrArCdTdT / antisense rGrUrCrUrUrGrGrGrCrArGrGrUrUrCrArGrCrUdCdG
The normalised inhibition (eCFP-eYFP dual reporter) of the first is lower: 53% for the first, 71.8% for the second.

Going from “sense rArGrGrArCrUrGrGrArArGrCrCrArGrUrCrCrUdTdT / antisense rArGrGrArCrUrGrGrCrUrUrCrCrArGrUrCrCrUdCdT” to “sense rArGrGrArGrGrArGrGrArGrUrCrGrGrCrGrGrGdTdT / antisense rCrCrCrGrCrCrGrArCrUrCrCrUrCrCrUrCrCrUdTdC”, the normalised inhibition (eCFP-eYFP dual reporter) falls from 54.1% to 41.7%.

First: sense rArGrGrCrCrGrCrArGrArGrGrUrCrCrUrGrCrAdTdT / antisense rUrGrCrArGrGrArCrCrUrCrUrGrCrGrGrCrCrUdCdC
Second: sense rArGrGrCrGrUrCrGrGrCrGrGrCrGrCrArGrCrUdTdT / antisense rArGrCrUrGrCrGrCrCrGrCrCrGrArCrGrCrCrUdTdC
The normalised inhibition (eCFP-eYFP dual reporter) of the first is higher: 65.4% for the first, 51.7% for the second.

Compared with “sense rArGrGrGrCrArArCrGrUrCrUrGrCrCrUrCrArAdTdT / antisense rUrUrGrArGrGrCrArGrArCrGrUrUrGrCrCrCrUdCdG”, “sense rArGrUrCrCrUrUrArCrGrArUrArArArCrUrCrCdTdT / antisense rGrGrArGrUrUrUrArUrCrGrUrArArGrGrArCrUdGdG” is lower in normalised inhibition (eCFP-eYFP dual reporter): 79.5% for the first, 60.6% for the second.

Compared with “sense rArGrUrCrGrGrCrGrGrGrCrGrGrCrArCrCrArAdTdT / antisense rUrUrGrGrUrGrCrCrGrCrCrCrGrCrCrGrArCrUdCdC”, “sense rArGrUrGrUrGrArGrArCrArArUrGrGrUrCrUrAdTdT / antisense rUrArGrArCrCrArUrUrGrUrCrUrCrArCrArCrUdTdC” is higher in normalised inhibition (eCFP-eYFP dual reporter): 73.6% for the first, 92.1% for the second.

Compared with “sense rArUrCrCrArGrArArGrGrArCrArUrArArArCrGdTdT / antisense rCrGrUrUrUrArUrGrUrCrCrUrUrCrUrGrGrArUdCdC”, “sense rArUrCrUrCrUrUrCrUrUrGrGrArGrCrCrCrArAdTdT / antisense rUrUrGrGrGrCrUrCrCrArArGrArArGrArGrArUdAdC” is higher in normalised inhibition (eCFP-eYFP dual reporter): 56.4% for the first, 77.1% for the second.

Going from “sense rArUrGrGrUrCrUrArUrCrArCrCrCrCrArArCrAdTdT / antisense rUrGrUrUrGrGrGrGrUrGrArUrArGrArCrCrArUdTdG” to “sense rCrArArCrCrCrCrGrArGrGrArCrCrCrArCrUrGdTdT / antisense rCrArGrUrGrGrGrUrCrCrUrCrGrGrGrGrUrUrGdGdG”, the normalised inhibition (eCFP-eYFP dual reporter) falls from 71.3% to 62.8%.

Compared with “sense rCrArArUrGrGrUrCrUrArUrCrArCrCrCrCrArAdTdT / antisense rUrUrGrGrGrGrUrGrArUrArGrArCrCrArUrUrGdTdC”, “sense rCrArCrCrCrCrArArCrArUrUrGrArCrCrUrCrGdTdT / antisense rCrGrArGrGrUrCrArArUrGrUrUrGrGrGrGrUrGdAdT” is lower in normalised inhibition (eCFP-eYFP dual reporter): 86.1% for the first, 62.5% for the second.

Going from “sense rCrArGrCrUrUrCrUrCrArGrArUrCrCrArGrArCdTdT / antisense rGrUrCrUrGrGrArUrCrUrGrArGrArArGrCrUrGdAdT” to “sense rCrArUrGrCrGrGrGrGrUrGrGrCrUrArCrArUrCdTdT / antisense rGrArUrGrUrArGrCrCrArCrCrCrCrGrCrArUrGdGdA”, the normalised inhibition (eCFP-eYFP dual reporter) falls from 79.3% to 67.7%.

First: sense rCrCrGrCrArGrArGrGrUrCrCrUrGrCrArGrArAdTdT / antisense rUrUrCrUrGrCrArGrGrArCrCrUrCrUrGrCrGrGdCdC
Second: sense rCrCrUrGrArUrGrArGrGrGrCrUrUrCrUrArCrAdTdT / antisense rUrGrUrArGrArArGrCrCrCrUrCrArUrCrArGrGdAdC
The normalised inhibition (eCFP-eYFP dual reporter) of the first is lower: 67.1% for the first, 77.9% for the second.

Going from “sense rCrGrArGrCrUrGrArArCrCrUrGrCrCrCrArArGdTdT / antisense rCrUrUrGrGrGrCrArGrGrUrUrCrArGrCrUrCrGdTdT” to “sense rCrGrGrCrGrGrCrGrCrArGrCrUrGrCrGrGrArUdTdT / antisense rArUrCrCrGrCrArGrCrUrGrCrGrCrCrGrCrCrGdAdC”, the normalised inhibition (eCFP-eYFP dual reporter) falls from 71.9% to 69.9%.

Going from “sense rCrGrGrGrGrUrGrGrCrUrArCrArUrCrGrGrCrUdTdT / antisense rArGrCrCrGrArUrGrUrArGrCrCrArCrCrCrCrGdCdA” to “sense rCrUrArCrArArGrArGrUrGrGrGrArArGrUrUrUdTdT / antisense rArArArCrUrUrCrCrCrArCrUrCrUrUrGrUrArGdAdA”, the normalised inhibition (eCFP-eYFP dual reporter) rises from 54.3% to 87.3%.

Compared with “sense rCrUrGrArArCrArArGrGrArGrGrCrCrGrCrArGdTdT / antisense rCrUrGrCrGrGrCrCrUrCrCrUrUrGrUrUrCrArGdTdG”, “sense rCrUrGrCrArGrArArCrArArCrCrGrGrCrGrGrCdTdT / antisense rGrCrCrGrCrCrGrGrUrUrGrUrUrCrUrGrCrArGdGdA” is lower in normalised inhibition (eCFP-eYFP dual reporter): 68.6% for the first, 64.1% for the second.

First: sense rCrUrGrGrUrCrArUrCrUrGrUrCrCrUrGrArUrGdTdT / antisense rCrArUrCrArGrGrArCrArGrArUrGrArCrCrArGdCdT
Second: sense rCrUrUrCrArArGrCrUrGrGrUrCrArUrCrUrGrUdTdT / antisense rArCrArGrArUrGrArCrCrArGrCrUrUrGrArArGdTdT
The normalised inhibition (eCFP-eYFP dual reporter) of the first is lower: 76.7% for the first, 77% for the second.

First: sense rCrUrUrCrUrArCrArArGrArGrUrGrGrGrArArGdTdT / antisense rCrUrUrCrCrCrArCrUrCrUrUrGrUrArGrArArGdCdC
Second: sense rCrUrUrCrUrCrArGrArUrCrCrArGrArCrGrArCdTdT / antisense rGrUrCrGrUrCrUrGrGrArUrCrUrGrArGrArArGdCdT
The normalised inhibition (eCFP-eYFP dual reporter) of the first is higher: 75.9% for the first, 65.6% for the second.

First: sense rCrUrUrCrUrUrGrGrArGrCrCrCrArArCrCrCrCdTdT / antisense rGrGrGrGrUrUrGrGrGrCrUrCrCrArArGrArArGdAdG
Second: sense rCrUrUrGrGrArGrCrCrCrArArCrCrCrCrGrArGdTdT / antisense rCrUrCrGrGrGrGrUrUrGrGrGrCrUrCrCrArArGdAdA
The normalised inhibition (eCFP-eYFP dual reporter) of the first is lower: 61.3% for the first, 64.5% for the second.

First: sense rGrArCrArArUrGrGrUrCrUrArUrCrArCrCrCrCdTdT / antisense rGrGrGrGrUrGrArUrArGrArCrCrArUrUrGrUrCdTdC
Second: sense rGrArGrGrArGrUrCrGrGrCrGrGrGrCrGrGrCrAdTdT / antisense rUrGrCrCrGrCrCrCrGrCrCrGrArCrUrCrCrUrCdCdT
The normalised inhibition (eCFP-eYFP dual reporter) of the first is higher: 61.8% for the first, 59.9% for the second.

First: sense rGrArGrUrCrGrGrCrGrGrGrCrGrGrCrArCrCrAdTdT / antisense rUrGrGrUrGrCrCrGrCrCrCrGrCrCrGrArCrUrCdCdT
Second: sense rGrArUrArUrCrArGrCrUrUrCrUrCrArGrArUrCdTdT / antisense rGrArUrCrUrGrArGrArArGrCrUrGrArUrArUrCdAdC
The normalised inhibition (eCFP-eYFP dual reporter) of the first is lower: 53% for the first, 60.5% for the second.

First: sense rGrArUrGrArGrGrGrCrUrUrCrUrArCrArArGrAdTdT / antisense rUrCrUrUrGrUrArGrArArGrCrCrCrUrCrArUrCdAdG
Second: sense rGrCrArGrArGrGrUrCrCrUrGrCrArGrArArCrAdTdT / antisense rUrGrUrUrCrUrGrCrArGrGrArCrCrUrCrUrGrCdGdG
The normalised inhibition (eCFP-eYFP dual reporter) of the first is higher: 82.7% for the first, 69.9% for the second.

Compared with “sense rGrCrArGrCrArGrCrArArGrArArGrGrCrGrUrCdTdT / antisense rGrArCrGrCrCrUrUrCrUrUrGrCrUrGrCrUrGrCdCdC”, “sense rGrCrCrArGrUrCrCrUrUrArCrGrArUrArArArCdTdT / antisense rGrUrUrUrArUrCrGrUrArArGrGrArCrUrGrGrCdTdT” is higher in normalised inhibition (eCFP-eYFP dual reporter): 61% for the first, 68.5% for the second.

Going from “sense rGrGrArCrCrCrArCrUrGrArArCrArArGrGrArGdTdT / antisense rCrUrCrCrUrUrGrUrUrCrArGrUrGrGrGrUrCrCdTdC” to “sense rGrGrCrCrArGrGrGrUrUrArCrCrCrGrCrArUrGdTdT / antisense rCrArUrGrCrGrGrGrUrArArCrCrCrUrGrGrCrCdCdA”, the normalised inhibition (eCFP-eYFP dual reporter) rises from 63.1% to 73.8%.

Work on “sense rGrGrCrCrGrCrArGrArGrGrUrCrCrUrGrCrArGdTdT / antisense rCrUrGrCrArGrGrArCrCrUrCrUrGrCrGrGrCrCdTdC” yielded a normalised inhibition (eCFP-eYFP dual reporter) of 66.4%.
